The source made the active and inactive calls. The calls are words filed in the database; no cut-off is given here.
Tests used:
Prothrombin [1] = molecular target: T1, Prothrombin (Homo sapiens, UniProt P00734); experiment: Inhibitory activity against Thrombin
Trypsin = Trypsin (Homo sapiens, UniProt P07477+P07478+P35030); experiment: Inhibitory activity against trypsin; assay type: protein assay
Prothrombin [2] = molecular target: T1, Prothrombin; experiment: Inhibition of Thrombin at 300 uM

COc1cc(C)c(S(=O)(=O)NC[C@@H](O)[C@H](Cc2ccccc2)NCc2cc(Cl)ccc2-n2cnnn2)c(C)c1C
IC50 (Prothrombin [1]): 1.4 nM

COc1cc(C)c(S(=O)(=O)NC[C@@H](O)[C@H](Cc2ccccc2)NCc2cccc(Cl)c2)c(C)c1C
IC50 (Trypsin): > 100000 nM

NCc1cccc(Cl)c1
inhibition (Prothrombin [2]): inactive

— ChEMBL document CHEMBL1149411, “Application of fragment screening and fragment linking to the discovery of novel thrombin inhibitors” (J Med Chem, 2006)
